# Molecular target: T1, Phosphatidylinositol 4,5-bisphosphate 3-kinase catalytic subunit delta isoform (Homo sapiens) (UniProt O00329)
# T1 sequence (whole entry): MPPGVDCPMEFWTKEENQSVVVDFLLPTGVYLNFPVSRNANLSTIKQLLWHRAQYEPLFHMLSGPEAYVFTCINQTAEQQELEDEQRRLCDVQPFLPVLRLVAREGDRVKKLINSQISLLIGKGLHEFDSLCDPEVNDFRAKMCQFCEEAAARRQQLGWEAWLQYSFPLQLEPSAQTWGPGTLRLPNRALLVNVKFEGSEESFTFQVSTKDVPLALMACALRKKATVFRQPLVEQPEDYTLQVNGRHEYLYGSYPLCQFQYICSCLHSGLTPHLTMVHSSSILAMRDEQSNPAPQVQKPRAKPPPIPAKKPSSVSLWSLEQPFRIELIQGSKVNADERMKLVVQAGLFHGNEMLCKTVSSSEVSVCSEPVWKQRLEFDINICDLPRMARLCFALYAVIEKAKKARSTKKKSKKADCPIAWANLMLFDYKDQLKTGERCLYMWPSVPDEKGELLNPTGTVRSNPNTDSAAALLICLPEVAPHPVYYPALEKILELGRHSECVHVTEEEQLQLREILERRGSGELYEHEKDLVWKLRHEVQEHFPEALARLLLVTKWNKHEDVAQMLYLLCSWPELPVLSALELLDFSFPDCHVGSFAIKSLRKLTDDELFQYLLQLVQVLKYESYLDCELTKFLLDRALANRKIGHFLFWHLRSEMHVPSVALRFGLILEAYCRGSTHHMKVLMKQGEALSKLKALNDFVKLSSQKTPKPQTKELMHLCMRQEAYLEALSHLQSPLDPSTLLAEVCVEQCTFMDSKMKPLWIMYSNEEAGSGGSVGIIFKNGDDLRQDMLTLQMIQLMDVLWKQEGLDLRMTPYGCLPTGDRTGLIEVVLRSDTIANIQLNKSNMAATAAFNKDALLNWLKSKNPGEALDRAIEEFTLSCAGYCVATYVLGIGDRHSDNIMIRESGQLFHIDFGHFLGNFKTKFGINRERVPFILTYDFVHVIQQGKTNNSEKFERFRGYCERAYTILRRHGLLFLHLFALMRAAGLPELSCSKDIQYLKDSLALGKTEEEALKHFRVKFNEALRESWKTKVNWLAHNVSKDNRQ
# Assay: Inhibition of PI3Kdelta (unknown origin) at 10 uM relative to control
row,Structure (SMILES),inhibition
1,Cc1cc(C(C)Nc2ccccc2)c2oc(N3CCOCC3)nc(=O)c2c1 (stereo unspecified),87%

# Molecular target: Phosphatidylinositol 4,5-bisphosphate 3-kinase catalytic subunit beta isoform (Homo sapiens, UniProt P42338)
# Assay: Inhibition of PI3Kbeta (unknown origin) incubated for 60 mins in the presence of ATP by Kinase-Glo luminescence assay
# Sequence of Phosphatidylinositol 4,5-bisphosphate 3-kinase catalytic subunit beta isoform (P42338 whole entry, canonical isoform): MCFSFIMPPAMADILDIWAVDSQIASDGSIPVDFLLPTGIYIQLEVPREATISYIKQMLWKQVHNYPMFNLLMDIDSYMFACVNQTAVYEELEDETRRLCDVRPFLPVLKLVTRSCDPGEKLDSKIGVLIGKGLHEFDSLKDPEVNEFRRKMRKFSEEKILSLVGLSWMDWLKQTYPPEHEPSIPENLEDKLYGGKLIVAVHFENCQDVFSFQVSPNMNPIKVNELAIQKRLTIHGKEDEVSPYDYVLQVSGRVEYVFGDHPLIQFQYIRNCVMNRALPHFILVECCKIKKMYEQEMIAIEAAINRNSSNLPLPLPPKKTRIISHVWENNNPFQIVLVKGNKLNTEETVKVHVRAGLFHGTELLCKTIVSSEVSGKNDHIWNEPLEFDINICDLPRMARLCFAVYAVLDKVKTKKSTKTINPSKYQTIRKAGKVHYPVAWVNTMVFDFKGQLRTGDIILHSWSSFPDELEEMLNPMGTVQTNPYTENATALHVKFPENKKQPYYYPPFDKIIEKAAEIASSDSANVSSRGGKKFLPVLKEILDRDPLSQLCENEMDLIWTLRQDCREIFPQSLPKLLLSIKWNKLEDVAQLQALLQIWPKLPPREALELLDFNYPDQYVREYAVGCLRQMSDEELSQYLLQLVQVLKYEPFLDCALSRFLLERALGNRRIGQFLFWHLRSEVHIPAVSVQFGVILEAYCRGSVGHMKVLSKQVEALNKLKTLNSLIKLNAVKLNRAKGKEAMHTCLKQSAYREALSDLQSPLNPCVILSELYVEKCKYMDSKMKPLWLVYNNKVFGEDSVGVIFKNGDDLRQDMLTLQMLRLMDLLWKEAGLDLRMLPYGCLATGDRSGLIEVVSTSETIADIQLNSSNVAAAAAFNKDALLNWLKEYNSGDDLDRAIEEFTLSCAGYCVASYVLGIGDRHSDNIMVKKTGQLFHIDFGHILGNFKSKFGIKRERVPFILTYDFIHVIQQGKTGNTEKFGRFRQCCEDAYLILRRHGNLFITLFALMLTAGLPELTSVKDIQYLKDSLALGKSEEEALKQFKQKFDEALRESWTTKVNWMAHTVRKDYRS
row,Structure (SMILES),IC50
1,Cc1ccc(OC(C)c2cc(C)cc3c(=O)nc(N4CCOCC4)oc23)cc1 (stereo unspecified),> 20000 nM
2,Cc1cc(C(C)Nc2ccc(F)cc2F)c2oc(N3CCOCC3)nc(=O)c2c1 (stereo unspecified),281 nM
3,Cc1cc(C(C)Nc2ccccc2Cl)c2oc(N3CCOCC3)nc(=O)c2c1 (stereo unspecified),136 nM
4,Cc1cccc(OC(C)c2cc(C)cc3c(=O)nc(N4CCOCC4)oc23)c1 (stereo unspecified),2440 nM
5,Cc1cc(C(C)Nc2cc(F)cc(F)c2)c2oc(N3CCOCC3)nc(=O)c2c1 (stereo unspecified),152 nM
6,Cc1cc(C(C)Nc2ccc(Br)cc2)c2oc(N3CCOCC3)nc(=O)c2c1 (stereo unspecified),12600 nM
7,COc1cccc(OC(C)c2cc(C)cc3c(=O)nc(N4CCOCC4)oc23)c1 (stereo unspecified),1880 nM
8,Cc1cc(C(C)Oc2ccccc2)c2oc(N3CCOCC3)nc(=O)c2c1 (stereo unspecified),1430 nM
9,COc1ccc(OC(C)c2cc(C)cc3c(=O)nc(N4CCOCC4)oc23)cc1 (stereo unspecified),> 20000 nM
10,Cc1cc(C(C)Oc2cc(C)c(Cl)c(C)c2)c2oc(N3CCOCC3)nc(=O)c2c1 (stereo unspecified),> 20000 nM
11,Cc1cc(C(C)Nc2cccc(Cl)c2F)c2oc(N3CCOCC3)nc(=O)c2c1 (stereo unspecified),272 nM
12,Cc1cc(C(C)Nc2cccc(Cl)c2)c2oc(N3CCOCC3)nc(=O)c2c1 (stereo unspecified),72.7 nM
13,Cc1cc(C(C)Oc2ccc(Cl)c(C)c2)c2oc(N3CCOCC3)nc(=O)c2c1 (stereo unspecified),> 20000 nM
14,Cc1cc(C(C)Nc2c(F)cccc2F)c2oc(N3CCOCC3)nc(=O)c2c1 (stereo unspecified),1220 nM
15,Cc1cc(C(C)Nc2ccc(F)c(F)c2)c2oc(N3CCOCC3)nc(=O)c2c1 (stereo unspecified),62.7 nM
16,Cc1cc(C(C)Nc2cccc3ccccc23)c2oc(N3CCOCC3)nc(=O)c2c1 (stereo unspecified),49.2 nM
17,Cc1cc(C(C)Oc2ccccc2C)c2oc(N3CCOCC3)nc(=O)c2c1 (stereo unspecified),227 nM
18,Cc1cc(C(C)Nc2cc(F)ccc2F)c2oc(N3CCOCC3)nc(=O)c2c1 (stereo unspecified),70 nM
19,Cc1cc(C(C)Nc2ccccc2)c2oc(N3CCOCC3)nc(=O)c2c1 (stereo unspecified),240 nM

# Molecular target: DNA-dependent protein kinase catalytic subunit (Homo sapiens, UniProt P78527)
# Assay: Inhibition of DNA-PK (unknown origin) in the presence of ATP
# Sequence of DNA-dependent protein kinase catalytic subunit (P78527 whole entry): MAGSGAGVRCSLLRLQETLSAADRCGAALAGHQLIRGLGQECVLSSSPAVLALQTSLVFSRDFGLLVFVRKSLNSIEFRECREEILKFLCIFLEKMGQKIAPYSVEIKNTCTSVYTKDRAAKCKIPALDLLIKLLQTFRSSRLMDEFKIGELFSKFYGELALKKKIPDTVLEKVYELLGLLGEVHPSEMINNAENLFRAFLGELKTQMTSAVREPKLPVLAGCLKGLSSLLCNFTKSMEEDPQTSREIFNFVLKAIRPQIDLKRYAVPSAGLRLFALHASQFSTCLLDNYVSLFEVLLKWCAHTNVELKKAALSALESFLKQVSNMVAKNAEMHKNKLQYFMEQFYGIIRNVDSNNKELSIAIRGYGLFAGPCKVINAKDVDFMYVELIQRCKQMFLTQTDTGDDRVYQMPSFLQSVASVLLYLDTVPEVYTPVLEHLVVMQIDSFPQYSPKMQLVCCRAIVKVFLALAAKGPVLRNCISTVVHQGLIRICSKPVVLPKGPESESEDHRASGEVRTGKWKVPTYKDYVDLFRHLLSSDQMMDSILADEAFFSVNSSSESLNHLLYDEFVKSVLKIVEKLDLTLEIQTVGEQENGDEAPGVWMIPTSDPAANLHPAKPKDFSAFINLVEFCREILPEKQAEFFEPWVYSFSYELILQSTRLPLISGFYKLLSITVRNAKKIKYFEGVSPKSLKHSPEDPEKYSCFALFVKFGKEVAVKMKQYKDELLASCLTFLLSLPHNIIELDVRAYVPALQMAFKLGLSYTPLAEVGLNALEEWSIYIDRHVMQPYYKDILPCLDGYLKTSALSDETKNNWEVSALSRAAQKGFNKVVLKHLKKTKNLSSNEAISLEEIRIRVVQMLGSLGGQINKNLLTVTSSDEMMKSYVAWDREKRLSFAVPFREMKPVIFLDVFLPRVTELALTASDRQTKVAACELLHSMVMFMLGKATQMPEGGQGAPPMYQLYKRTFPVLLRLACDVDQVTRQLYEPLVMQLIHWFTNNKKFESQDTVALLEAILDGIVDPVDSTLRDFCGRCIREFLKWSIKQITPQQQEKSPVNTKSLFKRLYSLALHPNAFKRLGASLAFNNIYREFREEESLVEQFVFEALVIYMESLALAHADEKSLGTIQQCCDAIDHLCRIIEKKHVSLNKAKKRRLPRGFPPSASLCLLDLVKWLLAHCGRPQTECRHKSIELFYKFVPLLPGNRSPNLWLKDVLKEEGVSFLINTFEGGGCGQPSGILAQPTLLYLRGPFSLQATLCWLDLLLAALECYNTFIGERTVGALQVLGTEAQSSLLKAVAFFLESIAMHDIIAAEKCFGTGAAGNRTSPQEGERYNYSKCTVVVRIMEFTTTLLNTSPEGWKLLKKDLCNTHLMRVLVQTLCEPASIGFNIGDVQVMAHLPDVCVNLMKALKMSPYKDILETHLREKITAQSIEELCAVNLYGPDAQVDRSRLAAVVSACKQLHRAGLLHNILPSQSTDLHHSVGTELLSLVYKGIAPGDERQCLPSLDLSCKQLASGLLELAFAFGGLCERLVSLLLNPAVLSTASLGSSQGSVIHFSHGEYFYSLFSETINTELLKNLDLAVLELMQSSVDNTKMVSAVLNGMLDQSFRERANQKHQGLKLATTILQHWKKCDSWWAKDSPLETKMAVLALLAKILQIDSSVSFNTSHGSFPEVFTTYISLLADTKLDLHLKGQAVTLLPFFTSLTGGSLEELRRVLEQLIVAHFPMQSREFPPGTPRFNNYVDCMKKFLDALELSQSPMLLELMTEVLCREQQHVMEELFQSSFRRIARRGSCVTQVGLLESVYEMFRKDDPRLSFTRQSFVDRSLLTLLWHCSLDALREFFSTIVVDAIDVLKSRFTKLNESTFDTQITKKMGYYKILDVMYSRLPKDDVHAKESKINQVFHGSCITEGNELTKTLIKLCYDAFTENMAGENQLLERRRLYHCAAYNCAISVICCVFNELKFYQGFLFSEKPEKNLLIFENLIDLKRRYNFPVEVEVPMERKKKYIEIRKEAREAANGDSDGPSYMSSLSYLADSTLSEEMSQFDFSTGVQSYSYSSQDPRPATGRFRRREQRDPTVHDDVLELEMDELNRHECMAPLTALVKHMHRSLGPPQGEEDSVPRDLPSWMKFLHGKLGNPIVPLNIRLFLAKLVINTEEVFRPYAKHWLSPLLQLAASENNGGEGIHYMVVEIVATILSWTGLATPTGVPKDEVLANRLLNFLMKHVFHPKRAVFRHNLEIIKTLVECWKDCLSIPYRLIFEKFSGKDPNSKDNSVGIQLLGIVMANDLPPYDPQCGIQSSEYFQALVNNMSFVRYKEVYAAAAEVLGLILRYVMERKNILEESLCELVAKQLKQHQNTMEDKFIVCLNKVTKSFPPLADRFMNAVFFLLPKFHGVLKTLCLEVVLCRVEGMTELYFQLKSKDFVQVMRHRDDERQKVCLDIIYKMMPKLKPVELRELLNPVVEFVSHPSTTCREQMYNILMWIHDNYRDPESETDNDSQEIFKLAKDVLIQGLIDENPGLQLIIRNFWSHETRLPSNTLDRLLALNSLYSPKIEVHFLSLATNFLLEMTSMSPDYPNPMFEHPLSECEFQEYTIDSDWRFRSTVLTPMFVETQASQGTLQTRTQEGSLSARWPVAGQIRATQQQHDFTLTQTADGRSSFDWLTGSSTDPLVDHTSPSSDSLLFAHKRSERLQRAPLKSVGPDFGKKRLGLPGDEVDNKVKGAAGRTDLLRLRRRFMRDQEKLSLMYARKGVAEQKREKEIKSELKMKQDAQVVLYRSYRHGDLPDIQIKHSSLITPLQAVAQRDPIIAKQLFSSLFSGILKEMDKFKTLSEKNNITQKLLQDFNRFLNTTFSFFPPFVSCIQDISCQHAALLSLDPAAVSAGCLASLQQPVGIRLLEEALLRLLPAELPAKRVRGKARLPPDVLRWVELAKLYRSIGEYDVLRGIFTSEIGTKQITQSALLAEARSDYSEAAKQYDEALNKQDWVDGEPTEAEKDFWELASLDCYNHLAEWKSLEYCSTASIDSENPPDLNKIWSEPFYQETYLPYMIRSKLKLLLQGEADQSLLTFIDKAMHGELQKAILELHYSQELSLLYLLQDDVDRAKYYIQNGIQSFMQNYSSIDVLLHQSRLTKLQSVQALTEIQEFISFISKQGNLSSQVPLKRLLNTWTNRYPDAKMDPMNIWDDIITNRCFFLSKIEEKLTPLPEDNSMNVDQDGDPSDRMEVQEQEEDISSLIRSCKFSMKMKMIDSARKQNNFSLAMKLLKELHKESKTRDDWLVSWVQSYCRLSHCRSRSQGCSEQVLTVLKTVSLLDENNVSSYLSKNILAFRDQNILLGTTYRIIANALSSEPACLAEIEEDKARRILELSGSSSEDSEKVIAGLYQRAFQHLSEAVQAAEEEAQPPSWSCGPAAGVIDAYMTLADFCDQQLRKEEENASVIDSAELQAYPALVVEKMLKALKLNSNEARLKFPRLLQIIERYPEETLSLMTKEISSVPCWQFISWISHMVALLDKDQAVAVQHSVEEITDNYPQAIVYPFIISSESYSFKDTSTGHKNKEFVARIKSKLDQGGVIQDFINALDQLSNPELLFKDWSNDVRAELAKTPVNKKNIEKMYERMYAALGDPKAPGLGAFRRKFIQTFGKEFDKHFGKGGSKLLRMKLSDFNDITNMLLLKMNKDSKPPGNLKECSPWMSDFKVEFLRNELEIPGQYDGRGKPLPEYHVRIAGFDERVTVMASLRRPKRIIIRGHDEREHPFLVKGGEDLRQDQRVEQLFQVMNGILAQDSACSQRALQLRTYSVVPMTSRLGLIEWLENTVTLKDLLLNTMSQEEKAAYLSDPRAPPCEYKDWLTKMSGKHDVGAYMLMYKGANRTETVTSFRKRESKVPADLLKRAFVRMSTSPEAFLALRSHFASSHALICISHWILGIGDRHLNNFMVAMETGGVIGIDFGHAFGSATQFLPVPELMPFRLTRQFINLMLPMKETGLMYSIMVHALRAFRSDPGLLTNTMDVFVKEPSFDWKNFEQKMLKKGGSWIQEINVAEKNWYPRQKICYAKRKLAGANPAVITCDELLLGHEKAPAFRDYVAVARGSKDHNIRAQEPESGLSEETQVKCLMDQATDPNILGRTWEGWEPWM
row,Structure (SMILES),IC50
1,Cc1cc(C(C)Nc2ccccc2)c2oc(N3CCOCC3)cc(=O)c2c1 (stereo unspecified),120 nM

# Source: ChEMBL document CHEMBL5113448, “Synthesis and biological evaluation of 4H-benzo[e][1,3]oxazin-4-ones analogues of TGX-221 as inhibitors of PI3Kβ” (Bioorg Med Chem, 2022)
